The text below walks through data of PubChem BioAssay (NCI).

Where “and” joins values, the source holds several entries; their conditions need not be identical. Identical values can stand only once.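 How tested: cells in 96-well plates exposed to compound for 48 hours at five concentrations. GI50: concentration for 50% inhibition of growth. TGI: concentration producing complete growth inhibition.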

In the assay the test system is MDA-MB-468 breast. As to the kind of experiment: NCI anticancer screen, dose series, 48 h.
Take `N[C@H](CCC(=O)N[C@@H](Cc1c[nH]c2ccccc12)C(=O)O)C(=O)O`: the GI50 is > 100000 nM and the TGI was > 100000 nM.

On to `O=C(NNc1nc2cc(F)cc(F)c2n2cccc12)c1ncccn1`, for which the GI50 is 590 nM and the TGI is 3790 nM.

With `Cc1cc(Nc2nc(-c3cn(-c4ccc(Cl)cc4)nn3)nc3ccccc23)n[nH]1`, the GI50 is 10400 nM and the TGI is 30500 nM.

In the case of `CCN(CC)CCCCCCNc1cccc2cc(Br)cnc12`, the GI50 was 1960 nM and the TGI stood at 4460 nM.

For `COc1ccc(-c2ccc3c(N4CCOC[C@@H]4C)nc(N4CCOC[C@@H]4C)nc3n2)cc1CO`, the GI50 was 5.33 nM and 18 nM; the TGI was 19.9 nM and 195 nM.

On to `N#CCCN1C/C(=C/c2ccc(Br)cc2)C(=O)/C(=C/c2ccc(Br)cc2)C1`, for which the GI50 is 1500 nM and the TGI came to 3620 nM.

With `Cc1ccc(OCCOCCOCCOCCOc2ccc(C)n(O)c2=S)c(=S)n1O`, the GI50 was < 17.4 nM and the TGI was 5330 nM.

Consider `COc1ccc(-c2cnnn2-c2nonc2-n2cccc2)cc1`, for which the GI50 is 130 nM and the TGI is 721 nM.

Consider `Cn1cc(-c2csc(-c3cn(CCCCN4CCCCC4)c4ccccc34)n2)c2cccnc21`, for which the GI50 is 1610 nM and the TGI turned out to be 3290 nM.

As for `Nc1cc2c(cc1Br)[nH]c(=O)c1ccccc12`, the GI50 is 1210 nM and the TGI was determined as 5410 nM.

As for `N=C(N)c1ccc(-c2ccc(-c3cccs3)s2)cc1`, the GI50 is 56.4 nM and the TGI amounted to 1150 nM.

In the case of `c1ccc2c(c1)[nH]c1c2cc[n+]2cc3c(cc12)CCCC3`, the GI50 was 1120 nM and the TGI stood at 2980 nM.

Turning to `Cc1cc(N/N=C/c2ccccn2)nc2ccccc12`, the GI50 was 252 nM and the TGI worked out at 2600 nM.

Regarding `CC(C)[C@H](O)C(=O)N[C@@H](C)C(=O)N[C@@H]1C(=O)N(C)CCc2ccccc21`, the GI50 is > 100000 nM and the TGI was > 100000 nM.

Regarding `COc1ccc(-c2nc(-c3cc(OC)cc(OC)c3)[nH]c2-c2ccc(OC)cc2)cc1`, the GI50 is 2780 nM and the TGI is > 100000 nM.

`COc1ccc(/C(C)=C(\c2ccc(OCCN3CCCCCC3)cc2)c2ccc(OC(=O)C3CCCCC3)cc2)cc1`: the GI50 was 737 nM and the TGI was found to be 2840 nM.

In the case of `Cc1cn(-c2cc(C(=O)Nc3cccc(-n4ccc5c(NC(=O)c6ccccc6)nccc54)c3)cc(C(F)(F)F)c2)cn1`, the GI50 was 229 nM and the TGI came to 1040 nM.

Regarding `ClCCN(CCCl)c1ccc(CNc2ccccc2)cc1`, the GI50 was 2140 nM and the TGI is 23400 nM.

On to `NNCCc1ccc(NC(=O)CCCc2ccc(C(=O)Nc3ccccc3N)cc2)cc1`, for which the GI50 was 10900 nM and the TGI was found to be 40100 nM.

Take `COc1cc2c(Nc3cc(Cl)c(OC)c(Cl)c3)c(C#N)cnc2cc1OCCCN1CCN(C)CC1`: the GI50 was 267 nM and the TGI amounted to 1640 nM.

As for `CC(C)c1[nH]nc2c1N=C(c1ccccc1Cl)c1cc([N+](=O)[O-])ccc1N2`, the GI50 was 2930 nM and the TGI is 15700 nM.

As for `C=CC(=O)N1CN(C(=O)C=C)CN(C(=O)C=C)C1`, the GI50 is 1460 nM and the TGI was 3400 nM.

Take `CN(C)C(=S)SSC(=S)N(C)C`: the GI50 is 17100 nM and the TGI is 37500 nM.

In the case of `OC(c1cc(-c2ccc(C(F)(F)F)cc2)nc(C(F)(F)F)c1)C1CCCCN1` (configuration not stated), the GI50 was 1610 nM and 1500 nM; the TGI is 3330 nM and 2830 nM.

Consider `Nc1cc(Br)c(-c2nnc(CCC(=O)c3nc4ccccc4[nH]3)o2)c(Br)c1`, for which the GI50 is 1930 nM and the TGI was 6970 nM.

With `O=C(Nc1cc(Nc2ncccc2-c2ncnc3nc[nH]c23)ccc1F)c1cc(C(F)(F)F)cc(C(F)(F)F)c1`, the GI50 was 3000 nM and the TGI amounted to 8360 nM.

Take `C#CCOc1cccc(Nc2ncnc3c(NC(=O)C=C)cccc23)c1`: the GI50 was 4910 nM and the TGI stood at 25400 nM.

On to `O=C(/C(=C\c1c(-c2ccccc2)[nH]c2ccccc12)S(=O)(=O)c1ccccc1)c1ccccc1`, for which the GI50 is 4180 nM and the TGI is > 100000 nM.

On to `CC(C)(C)[Si](C)(C)OC1[C@@H](CNC(=O)NC(=O)CCl)O[C@@H](n2cnc3c(N)ncnc32)[C@H]1O[Si](C)(C)C(C)(C)C` (some centres not stated), for which the GI50 is 802 nM and the TGI is 1710 nM.

As for `O=C(NCc1ccc(Cn2c(=O)sn(-c3ccccc3)c2=O)cc1)OCc1ccc2cccc(O)c2n1`, the GI50 was 552 nM and the TGI was 2140 nM.

On to `CC1(C)CN=C(NN=C(/C=C/c2ccc(C(F)(F)F)cc2)/C=C/c2ccc(C(F)(F)F)cc2)NC1`, for which the GI50 is 1280 nM and the TGI was 2720 nM.

Turning to `COc1cc(/C=C\c2cc(OC)c(OC)c(OC)c2)cc(N/C=C\C(=O)c2c[nH]c3ccccc23)c1OC`, the GI50 was 1280 nM and the TGI turned out to be 3660 nM.

For the compound `COc1ccc(-c2nn(-c3cccc(Cl)c3)cc2-c2cc(-c3ccccc3)[nH]c(=O)c2C#N)cc1`, the GI50 was 1550 nM and the TGI came out at 7510 nM.

For `O=C1Nc2ccccc2/C1=C1\CCc2cc(O)ccc21`, the GI50 was 3330 nM and the TGI is > 21800 nM.

For `CO[C@H]1Nc2c(ccc(C)c2O)C(=O)N2C=C(/C=C/C(N)=O)C[C@@H]12`, the GI50 was 20.8 nM and the TGI was determined as 46.5 nM.

As for `CCCCCCCCCCNC(=O)CI`, the GI50 was 2140 nM and the TGI turned out to be 4860 nM.
